Source: patent publication US9050341B2, “Methods of treating drug resistant and other tumors by administering 6,7-dialkoxy quinazoline derivatives” (NATCO PHARMA LIMITED, priority 2009, dated 2015)

How the values were obtained:
Assay in all cases: KinomeScan kinase profiling
Type in all cases: binding
AMPK-alpha2 = molecular target: T1, AMPK-alpha2 (Homo sapiens, UniProt P54646)
T1 construct: host or cells: E. coli host derived from BL21 (T7 phage lysate)
In short: (§1)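 Kinases were expressed as T7 phage fusions in a BL21-derived E. coli host and the cleared lysates were used. Ligand beads were blocked with biotin and buffer (1% BSA, 0.05% Tween 20, 1 mM DTT). Compounds came from 40× DMSO stocks, and phage in the eluates was titred by qPCR.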

AURKA = molecular target: T2, AURKA (Homo sapiens, UniProt O14965)
T2 construct: purchased Ambit Biosciences Corp (KinomeScan); host or cells: E. coli host derived from the BL21 strain, T7 phage
In short: as §1

CDK8 = molecular target: T3, CDK8 (Homo sapiens, UniProt P49336)
T3 construct: host or cells: T7 phage in E. coli (BL21-derived)
In short: as §1

CSNK1E = molecular target: T4, CSNK1E (Homo sapiens, UniProt P49674)
T4 construct: host or cells: T7 phage in E. coli (BL21-derived)
In short: as §1

CSNK1G1 = molecular target: T5, CSNK1G1 (Homo sapiens, UniProt Q9HCP0)
T5 construct: purchased Ambit Biosciences Corp (KinomeScan); host or cells: T7 phage in E. coli host derived from BL21
In short: as §1

DDR2 = molecular target: T6, DDR2 (Homo sapiens, UniProt Q16832)
T6 construct: purchased Ambit Biosciences Corp (KinomeScan); host or cells: T7 phage in E. coli host derived from BL21
In short: as §1

DLK = molecular target: T7, DLK (Homo sapiens, UniProt Q12852)
T7 construct: purchased Ambit Biosciences Corp (KinomeScan); host or cells: T7 phage in E. coli host derived from BL21
In short: as §1

DMPK = molecular target: T8, DMPK (Homo sapiens, UniProt Q09013)
T8 construct: purchased Ambit Biosciences Corp (KinomeScan); host or cells: T7 phage in E. coli host derived from BL21
In short: as §1

EGFR (L861Q) = molecular target: T9, EGFR (L861Q) (Homo sapiens, UniProt P00533, L861Q)
T9 construct: host or cells: E. coli host derived from BL21, T7 phage lysate
In short: as §1

ERBB2 = molecular target: T10, ERBB2 (Homo sapiens, UniProt P04626)
T10 construct: host or cells: E. coli host derived from BL21, T7 phage lysate
In short: as §1

FLT3 (D835Y) = molecular target: T11, FLT3 (D835Y) (Homo sapiens, UniProt P36888, D835Y)
T11 construct: host or cells: E. coli host derived from BL21, infected with T7 phage
In short: as §1

FLT3 (N8411) = molecular target: T12, FLT3 (N8411) (Homo sapiens, UniProt P36888, N841I)
T12 construct: host or cells: E. coli host derived from BL21, infected with T7 phage
In short: as §1

KIT (V559D, T670I) = molecular target: T13, KIT (V559D, T670I) (Homo sapiens, UniProt P10721, T670I/V559D)
T13 construct: host or cells: T7 phage in E. coli host derived from BL21
In short: as §1

MAP3K4 = molecular target: T14, MAP3K4 (Homo sapiens, UniProt Q9Y6R4)
T14 construct: host or cells: E. coli derived from BL21, infected with T7 phage
In short: as §1

MAP4K5 = molecular target: T15, MAP4K5 (Homo sapiens, UniProt Q9Y4K4)
T15 construct: host or cells: E. coli derived from BL21, infected with T7 phage
In short: as §1

MLK1 = molecular target: T16, MLK1 (Homo sapiens, UniProt P80192)
T16 construct: host or cells: T7 phage in E. coli host derived from BL21
In short: as §1

NEK1 = molecular target: T17, NEK1 (Homo sapiens, UniProt Q96PY6)
T17 construct: host or cells: T7 phage in E. coli host derived from BL21
In short: as §1

NEK7 = molecular target: T18, NEK7 (Homo sapiens, UniProt Q8TDX7)
T18 construct: host or cells: T7 phage in E. coli host derived from BL21
In short: as §1

PIK3CG = molecular target: T19, PIK3CG (Homo sapiens, UniProt P48736)
T19 construct: purchased Ambit Biosciences Corp (KinomeScan); host or cells: E. coli host derived from BL21, infected with T7 phage
In short: as §1

PKN2 = molecular target: T20, PKN2 (Homo sapiens, UniProt Q16513)
T20 construct: purchased Ambit Biosciences Corp (KinomeScan); host or cells: E. coli host derived from BL21, infected with T7 phage
In short: as §1

PRKG1 = molecular target: T21, PRKG1 (Homo sapiens, UniProt Q13976)
T21 construct: purchased Ambit Biosciences Corp (KinomeScan); host or cells: E. coli host derived from BL21, infected with T7 phage
In short: as §1

SRMS = molecular target: T22, SRMS (Homo sapiens, UniProt Q9H3Y6)
T22 construct: host or cells: E. coli host derived from the BL21 strain, T7 phage lysate
In short: as §1

p38-alpha = molecular target: T23, p38-alpha (Homo sapiens, UniProt Q16539)
T23 construct: host or cells: E. coli host derived from the BL21 strain, infected with T7 phage
In short: as §1

T7 sequence (Q12852 whole entry): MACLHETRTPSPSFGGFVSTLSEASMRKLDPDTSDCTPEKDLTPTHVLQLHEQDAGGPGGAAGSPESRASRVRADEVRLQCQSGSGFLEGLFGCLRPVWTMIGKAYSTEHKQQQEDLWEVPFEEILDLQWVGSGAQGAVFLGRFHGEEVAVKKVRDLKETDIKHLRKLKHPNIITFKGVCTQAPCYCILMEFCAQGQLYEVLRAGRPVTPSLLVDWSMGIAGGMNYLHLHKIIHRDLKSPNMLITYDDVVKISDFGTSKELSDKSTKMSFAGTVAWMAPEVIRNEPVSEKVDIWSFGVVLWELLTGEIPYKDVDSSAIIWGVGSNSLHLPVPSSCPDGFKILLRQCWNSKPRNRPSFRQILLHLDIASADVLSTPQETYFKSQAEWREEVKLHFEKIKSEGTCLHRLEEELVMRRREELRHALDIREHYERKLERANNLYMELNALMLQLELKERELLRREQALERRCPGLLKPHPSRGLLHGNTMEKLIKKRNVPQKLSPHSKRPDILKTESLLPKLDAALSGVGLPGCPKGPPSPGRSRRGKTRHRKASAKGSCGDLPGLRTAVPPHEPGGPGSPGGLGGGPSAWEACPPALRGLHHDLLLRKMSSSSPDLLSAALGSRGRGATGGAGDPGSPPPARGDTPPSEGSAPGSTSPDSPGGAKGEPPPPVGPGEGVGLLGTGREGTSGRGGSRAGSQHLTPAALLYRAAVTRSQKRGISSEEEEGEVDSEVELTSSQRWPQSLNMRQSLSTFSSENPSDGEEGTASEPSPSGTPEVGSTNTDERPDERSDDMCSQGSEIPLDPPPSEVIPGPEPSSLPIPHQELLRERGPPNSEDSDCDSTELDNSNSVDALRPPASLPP
T14 sequence (Q9Y6R4 whole entry): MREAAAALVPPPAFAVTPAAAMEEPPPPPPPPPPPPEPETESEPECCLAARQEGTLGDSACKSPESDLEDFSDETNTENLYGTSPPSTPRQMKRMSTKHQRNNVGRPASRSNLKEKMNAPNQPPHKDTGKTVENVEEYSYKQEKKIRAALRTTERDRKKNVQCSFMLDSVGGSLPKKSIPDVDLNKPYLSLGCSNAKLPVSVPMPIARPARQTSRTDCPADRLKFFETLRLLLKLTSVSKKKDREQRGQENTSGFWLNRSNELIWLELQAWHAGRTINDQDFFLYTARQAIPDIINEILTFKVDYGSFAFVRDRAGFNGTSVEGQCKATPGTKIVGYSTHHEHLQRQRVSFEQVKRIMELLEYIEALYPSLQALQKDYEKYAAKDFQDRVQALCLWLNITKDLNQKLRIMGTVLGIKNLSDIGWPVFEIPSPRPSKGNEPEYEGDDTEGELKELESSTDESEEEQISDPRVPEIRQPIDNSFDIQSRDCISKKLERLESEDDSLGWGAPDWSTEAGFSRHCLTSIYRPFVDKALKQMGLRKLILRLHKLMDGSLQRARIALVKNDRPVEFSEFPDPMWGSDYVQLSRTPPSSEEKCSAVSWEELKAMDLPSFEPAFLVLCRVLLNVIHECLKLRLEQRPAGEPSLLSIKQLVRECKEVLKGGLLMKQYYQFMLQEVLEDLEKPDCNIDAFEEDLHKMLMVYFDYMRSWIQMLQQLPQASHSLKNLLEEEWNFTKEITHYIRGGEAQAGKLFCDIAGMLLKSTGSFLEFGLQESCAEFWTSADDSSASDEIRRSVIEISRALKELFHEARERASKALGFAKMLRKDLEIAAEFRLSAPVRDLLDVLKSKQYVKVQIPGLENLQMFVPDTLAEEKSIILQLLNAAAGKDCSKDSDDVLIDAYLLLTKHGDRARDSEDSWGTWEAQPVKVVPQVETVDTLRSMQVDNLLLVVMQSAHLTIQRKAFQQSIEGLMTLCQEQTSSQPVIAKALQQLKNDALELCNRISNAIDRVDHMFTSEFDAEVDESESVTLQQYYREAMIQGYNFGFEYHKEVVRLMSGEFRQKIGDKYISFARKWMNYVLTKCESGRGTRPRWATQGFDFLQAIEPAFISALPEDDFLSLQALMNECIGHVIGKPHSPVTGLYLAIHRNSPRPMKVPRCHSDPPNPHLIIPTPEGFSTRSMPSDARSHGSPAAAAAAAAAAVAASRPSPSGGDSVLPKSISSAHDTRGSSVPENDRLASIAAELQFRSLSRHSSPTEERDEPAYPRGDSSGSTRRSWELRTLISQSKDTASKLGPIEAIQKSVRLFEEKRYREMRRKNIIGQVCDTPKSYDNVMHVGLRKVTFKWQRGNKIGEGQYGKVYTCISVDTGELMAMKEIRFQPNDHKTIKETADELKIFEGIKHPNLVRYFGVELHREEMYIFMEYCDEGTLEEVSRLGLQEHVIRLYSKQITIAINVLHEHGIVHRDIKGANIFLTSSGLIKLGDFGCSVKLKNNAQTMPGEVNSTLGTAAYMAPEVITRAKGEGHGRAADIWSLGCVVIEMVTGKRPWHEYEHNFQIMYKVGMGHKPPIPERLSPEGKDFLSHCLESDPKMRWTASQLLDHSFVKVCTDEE
T2 sequence (O14965 whole entry): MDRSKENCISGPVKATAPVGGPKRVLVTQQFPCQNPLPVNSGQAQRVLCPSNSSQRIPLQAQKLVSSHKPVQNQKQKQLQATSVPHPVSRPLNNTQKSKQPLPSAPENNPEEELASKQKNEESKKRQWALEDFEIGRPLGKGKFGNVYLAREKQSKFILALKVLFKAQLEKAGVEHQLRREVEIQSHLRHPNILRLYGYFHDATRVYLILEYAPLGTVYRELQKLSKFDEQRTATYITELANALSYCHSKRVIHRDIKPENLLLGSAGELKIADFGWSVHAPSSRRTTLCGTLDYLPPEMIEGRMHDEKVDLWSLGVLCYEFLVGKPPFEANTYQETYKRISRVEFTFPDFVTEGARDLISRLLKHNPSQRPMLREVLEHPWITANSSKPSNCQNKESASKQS
T5 sequence (Q9HCP0 whole entry): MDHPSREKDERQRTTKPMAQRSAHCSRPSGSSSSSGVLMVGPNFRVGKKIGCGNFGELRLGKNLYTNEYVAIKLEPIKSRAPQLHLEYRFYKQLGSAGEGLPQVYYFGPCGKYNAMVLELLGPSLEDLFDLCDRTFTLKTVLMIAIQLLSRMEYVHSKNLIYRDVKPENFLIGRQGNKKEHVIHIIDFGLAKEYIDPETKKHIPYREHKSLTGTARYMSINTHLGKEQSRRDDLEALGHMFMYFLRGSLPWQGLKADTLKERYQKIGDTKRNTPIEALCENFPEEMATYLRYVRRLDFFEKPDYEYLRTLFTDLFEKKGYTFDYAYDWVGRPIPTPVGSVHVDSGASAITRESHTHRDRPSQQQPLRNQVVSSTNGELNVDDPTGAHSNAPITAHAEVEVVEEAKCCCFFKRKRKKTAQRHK
T22 sequence (Q9H3Y6 whole entry): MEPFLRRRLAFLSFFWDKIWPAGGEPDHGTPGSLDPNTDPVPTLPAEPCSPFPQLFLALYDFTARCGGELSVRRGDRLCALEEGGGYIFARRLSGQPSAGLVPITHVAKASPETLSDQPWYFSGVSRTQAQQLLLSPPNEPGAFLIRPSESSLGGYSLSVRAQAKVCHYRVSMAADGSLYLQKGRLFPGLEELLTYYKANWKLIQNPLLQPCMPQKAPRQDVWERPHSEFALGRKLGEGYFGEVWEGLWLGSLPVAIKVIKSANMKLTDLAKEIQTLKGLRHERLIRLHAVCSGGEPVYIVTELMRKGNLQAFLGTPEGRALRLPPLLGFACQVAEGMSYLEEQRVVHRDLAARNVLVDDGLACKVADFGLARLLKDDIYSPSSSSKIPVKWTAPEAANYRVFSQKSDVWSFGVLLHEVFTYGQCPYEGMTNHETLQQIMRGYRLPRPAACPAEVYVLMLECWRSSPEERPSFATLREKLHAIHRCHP
T23 sequence (Q16539 whole entry): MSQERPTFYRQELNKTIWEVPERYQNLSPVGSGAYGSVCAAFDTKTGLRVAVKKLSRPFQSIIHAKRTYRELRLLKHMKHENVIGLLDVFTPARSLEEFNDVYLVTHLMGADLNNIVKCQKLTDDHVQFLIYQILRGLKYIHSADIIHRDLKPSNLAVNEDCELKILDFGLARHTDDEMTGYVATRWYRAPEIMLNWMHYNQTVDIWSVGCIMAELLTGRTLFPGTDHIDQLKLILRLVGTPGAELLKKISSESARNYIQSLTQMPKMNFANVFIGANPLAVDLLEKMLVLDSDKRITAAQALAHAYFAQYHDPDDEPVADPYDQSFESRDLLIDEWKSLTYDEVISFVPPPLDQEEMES
T4 sequence (P49674 whole entry): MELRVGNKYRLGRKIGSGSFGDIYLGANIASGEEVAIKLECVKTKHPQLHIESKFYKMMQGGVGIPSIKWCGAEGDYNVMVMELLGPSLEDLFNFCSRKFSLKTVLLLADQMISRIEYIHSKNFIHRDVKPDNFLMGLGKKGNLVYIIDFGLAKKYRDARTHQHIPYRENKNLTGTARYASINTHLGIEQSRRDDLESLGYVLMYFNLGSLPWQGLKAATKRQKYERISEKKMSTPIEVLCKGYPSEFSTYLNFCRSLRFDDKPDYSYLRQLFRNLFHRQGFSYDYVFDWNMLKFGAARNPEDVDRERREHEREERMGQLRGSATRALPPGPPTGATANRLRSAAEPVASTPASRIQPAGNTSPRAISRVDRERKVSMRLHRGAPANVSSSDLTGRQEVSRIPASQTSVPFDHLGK
T3 sequence (P49336 whole entry): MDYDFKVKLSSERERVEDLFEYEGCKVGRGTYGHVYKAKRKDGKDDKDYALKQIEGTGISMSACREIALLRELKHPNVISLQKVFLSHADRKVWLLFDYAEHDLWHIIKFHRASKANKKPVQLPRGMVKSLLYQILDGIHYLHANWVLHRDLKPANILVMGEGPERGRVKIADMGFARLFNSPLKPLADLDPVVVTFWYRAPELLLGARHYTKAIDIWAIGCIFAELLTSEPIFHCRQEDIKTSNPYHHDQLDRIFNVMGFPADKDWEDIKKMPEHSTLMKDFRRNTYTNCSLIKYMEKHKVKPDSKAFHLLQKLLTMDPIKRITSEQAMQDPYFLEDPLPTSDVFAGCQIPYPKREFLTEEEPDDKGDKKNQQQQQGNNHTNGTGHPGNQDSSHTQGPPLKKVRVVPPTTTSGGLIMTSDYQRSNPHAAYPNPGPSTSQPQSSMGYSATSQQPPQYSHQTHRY

C#Cc1cccc(Nc2ncnc3cc(OC)c(OCCCN4CCOCC4)cc23)c1 [NRC-2694, N-(3-ethylnylphenyl)-7-methoxy-6-[3-(4-morpholinyl)propoxy]-4-quinazolinamine]
% Ctrl @ 10000 nM (AMPK-alpha2): 61 % Ctrl
% Ctrl @ 10000 nM (AURKA): 100 % Ctrl
% Ctrl @ 10000 nM (CDK8): 100 % Ctrl
% Ctrl @ 10000 nM (CSNK1E): 9.6 % Ctrl
% Ctrl @ 10000 nM (CSNK1G1): 55 % Ctrl
% Ctrl @ 10000 nM (DDR2): 76 % Ctrl
% Ctrl @ 10000 nM (DLK): 92 % Ctrl
% Ctrl @ 10000 nM (DMPK): 6.8 % Ctrl
% Ctrl @ 10000 nM (EGFR (L861Q)): 0 % Ctrl
% Ctrl @ 10000 nM (ERBB2): 31 % Ctrl
% Ctrl @ 10000 nM (FLT3 (D835Y)): 9.4 % Ctrl
% Ctrl @ 10000 nM (FLT3 (N8411)): 16 % Ctrl
% Ctrl @ 10000 nM (KIT (V559D, T670I)): 28 % Ctrl
% Ctrl @ 10000 nM (MAP3K4): 53 % Ctrl
% Ctrl @ 10000 nM (MAP4K5): 23 % Ctrl
% Ctrl @ 10000 nM (MLK1): 100 % Ctrl
% Ctrl @ 10000 nM (NEK1): 66 % Ctrl
% Ctrl @ 10000 nM (NEK7): 78 % Ctrl
% Ctrl @ 10000 nM (PIK3CG): 78 % Ctrl
% Ctrl @ 10000 nM (PKN2): 31 % Ctrl
% Ctrl @ 10000 nM (PRKG1): 75 % Ctrl
% Ctrl @ 10000 nM (SRMS): 100 % Ctrl
% Ctrl @ 10000 nM (p38-alpha): 89 % Ctrl
